Tested on: adenosine-uptake system
Assay: Inhibition of adenosine uptake in rabbit erythrocytes
Assay type: cell-based
Conditions: Oryctolagus cuniculus, 0.25 h; rabbit erythrocyte preparation; concentration at which 50% of the adenosine originally employed is still present 15 min after addition; 30° C.
Protocol: 2. Inhibition of Adenosine Uptake in Rabbit Erythrocytes by the Compounds According to the Invention.
The capability of substances to influence the adenosine-uptake system is investigated by determining the inhibitory effect of the substances on functional adenosine uptake. For the functional adenosine-uptake test, an erythrocyte preparation from rabbit blood is used. The blood is drawn intravenously using citrate (3 ml Monovette 9NC from Sarstedt) as anticoagulant. The blood is centrifuged at 3000 g for 5 min and the erythrocytes are suspended in 10 mM MOPS/0.9% NaCl solution pH 7.4. The suspension is diluted to one hundredth of the original blood volume. In each case 990 μl of the suspension are admixed with 10 μl of a suitable concentration of the substance to be investigated, and the mixture is incubated at 30° C. for 5 min. 5 μl of a 4 mM adenosine solution are then added, and the mixture is incubated at 30° C. for another 15 min. The samples are then centrifuged at 3000 g for 5 min and in each case […] of the supernatant are admixed with 28 μl of 70% strength HClO4, allowed to stand in an ice bath for 30 min and centrifuged at 16,000 g for 3 min, and 350 μl of the sample are neutralized using 30 μl of 5N NaOH. 50 μl of the sample are applied to a column (Waters Symmetry C18 […] 3.9×150 mm). A Spherisorb ODS II 5 μm 4.6×10 mm column is used as precolumn. The mobile phase used is a gradient of 50 mM KH2PO^4/5 mM tributylamine pH 7 (mobile phase A) and a mixture of mobile phase A/methanol 1/1 (mobile phase B). The gradient is from 10-40% B, at a flow rate of 0.5 ml/min. The adenosine which is present is quantified by its absorption at 260 nm, as are the hyoxanthine and inosine formed.

SMILES: NC(=O)[C@@H](NC(=O)[C@@H]1CCCC[C@H]1c1ccc(Cn2c(CN3CCOCC3)nc3cccnc32)cc1)c1ccccc1 [Example 3, (S)-N-{{(1R, 2R)-{4-{2-[2-(Morpholin-4-yl-methyl)-1H-pyrido[2,3-d]-imidazol-1-yl]methyl}-phenyl}-cyclohex-1-yl}carbonyl}-phenylglycinamide]
- IC50: 15 nM

SMILES: CC(C)N1CCN(c2nc3ccccc3n2Cc2ccc([C@@H]3CCCC[C@H]3C(=O)N[C@H](C(N)=O)c3ccccc3)cc2)CC1 [Example 8]
- IC50: 20 nM

SMILES: NC(=O)[C@@H](NC(=O)[C@@H]1CCCC[C@H]1c1ccc(Cn2c(N3CCNCC3)nc3ccccc32)cc1)c1ccccc1 [Example 10]
- IC50: 25 nM

SMILES: NC(=O)[C@@H](NC(=O)[C@@H]1CCCC[C@H]1c1ccc(Cn2c(COCCO)nc3cccnc32)cc1)c1ccccc1 [Example 16]
- IC50: 10 nM

Source: US6984642B1, “Substituted phenylcyclohexane carboxylic acid amides and their use as adenosine uptake inhibitors” (Bayer Aktiengesellschaft, priority 1999, dated 2006)
